Test results taken from patent US20080287398A1, “COLD MENTHOL RECEPTOR-1 ANTAGONISTS” (priority 2007, published 2008).

Assays:
Male Sprague-Dawley rats = experiment: Cold pressor test in anesthetized rat; assay type: in vivo; settings: 6 mg/kg i.v., time 10′, mean arterial pressure change on forelimb ice
Description: Compounds of Formula (I) can be tested in animals and humans for their ability to mitigate cardiovascular pressor responses evoked by cold exposure. The clinical cold pressor test assesses changes in blood pressure (BP) and cold pain perception during a 2-3 minute immersion of one hand into ice water. This test may be utilized to characterize analgesic compounds (Koltzenberg M et al. Pain. 2006, 126(1-3): 165-74) and to assess cold hypersensitivity (Desmeules J A et al. Arthritis Rheum. 2003, 48(5): 1420-9). A compound of Formula (I) was studied in an anesthetized rat cold pressor paradigm to determine whether TRPM8 antagonism would interfere with the blood pressure pressor response to cold stimulation of the forepaws. Male Sprague-Dawley rats (300-450 g) anesthetized with sodium pentobarbital were instrumented with a jugular catheter and an indwelling carotid artery pressure transducer. Vehicle (10% Solutol in water) or test compound was infused (1 mL/kg) over one minute through the intravenous catheter. […] Percent changes in mean arterial pressure in response to this cold stimulus were calculated for vehicle and test compound pretreatments. Percent inhibition attributed to treatment with test compound was then determined using the following formula: % Inhibition=[1−(cold evoked % change in BP post-test compound/cold evoked % change in BP post-vehicle)]×100.

mice = experiment: CFA-induced paw cold hypersensitivity (acetone-evoked paw licking); assay type: in vivo; settings: mouse; 60 mg/kg p.o.; time 30′; acetone licking duration vs vehicle
Description: Prior to intraplantar CFA injection mice were placed individually in elevated observation chambers having wire mesh floors. Through the mesh floor a series of three applications of acetone (0.04 mL/application) was sprayed onto the bottom of the paw using a multidose syringe device. A positive response took the form of an abrupt withdrawal and licking of the paw. The cumulative duration of licking was recorded for each of the three trials which were then averaged to give the individual's response. Twenty-four hours following CFA injection acetone licking durations were markedly elevated implying a hypersensitivity to cooling. A test compound of Formula (I) was assessed for its ability to return acetone-evoked paw licking durations to pre-CFA levels (typically near zero) following systemic administration. Percent inhibition was calculated % inhibition=[1−(treatment licking duration/vehicle licking duration)]×100.

## CC(C)OP(=O)(OC(C)C)[C@@H](Cc1ccc(F)c(C(F)(F)F)c1)c1sc2ccccc2c1Br [Cpd 242, (S)-[1-(3-Bromo-benzo[b]thiophen-2-yl)-2-(4-fluoro-3-trifluoromethyl-phenyl)-ethyl]-phosphonic acid diisopropyl ester]
Male Sprague-Dawley rats
  % I (inhibition of cold-induced pressor response): 54%
mice
  % I: 84%
